Tests used:
[1] = tested on: B. subtilis 168; assay: fitness (endpoint OD595 vs no drug) (fraction); higher = more growth
Outline: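 Growth medium was TSB, LB Lennox or CY, and plates were kept at 37 °C. Inoculation was at OD595 0.01 in 384-well plates, at 30 µl per well or 55 µl for S. pneumoniae. OD595 was monitored every 30 min for 14 h and background-subtracted using the first reading. Fitness is the optical density on entering stationary phase divided by the robust mean of no-drug controls, with values capped at 1.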

[2] = tested on: B. subtilis 168; assay: Bliss interaction score (quartile over a dose matrix) (fitness difference); higher = more antagonism (negative = synergy)
Outline: (§1)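 Quartiles of the Bliss score were taken over technical, biological and donor/recipient replicates. That score is observed fitness minus the product of the single-drug fitness values, which were inferred from combination data. Fitness itself is OD595 at entry into stationary phase divided by the plate's robust no-drug mean, with a cap at 1.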

[3] = tested on: S. aureus DSM 20231; assay: as above
Outline: as §1

[4] = tested on: S. aureus Newman; assay: as above
Outline: as §1

[5] = tested on: S. pneumoniae D39V; assay: as above
Outline: as §1
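Wherever Bliss interaction score (quartile over a dose matrix) is given: first quartile when negative (synergy) and third quartile when positive (antagonism).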

CO[C@@H]1[C@@H](OC(N)=O)[C@@H](O)[C@H](Oc2ccc3c(O)c(NC(=O)c4ccc(O)c(CC=C(C)C)c4)c(=O)oc3c2C)OC1(C)C [Novobiocin] + CN[C@@H]1[C@H](O[C@H]2[C@H](O[C@H]3[C@H](O)[C@@H](O)[C@H](N=C(N)N)[C@@H](O)[C@@H]3N=C(N)N)O[C@@H](C)[C@]2(O)C=O)O[C@@H](CO)[C@H](O)[C@H]1O [Streptomycin]
fitness, [1]
Settings | first compound 0.0125 µg/mL | first compound 0.025 µg/mL | first compound 0.05 µg/mL
partner 2 µg/mL | 0.967 | ≥ 1 | 0.938
partner 4 µg/mL | – | 0.725 | 0.873
partner 8 µg/mL | 0.0452 | 0.0379 | 0.0344

fitness, [1], one replicate
Settings | first compound 0.125 µg/mL | first compound 0.25 µg/mL | first compound 0.5 µg/mL
partner 2 µg/mL | 0.926 | 0.843 | 0.592
partner 4 µg/mL | 0.928 | 0.836 | 0.537
partner 8 µg/mL | 0.135 | 0.044 | 0.0121

Settings | Bliss interaction score
[2] | 0.133
[3] | -0.111
[4] | -0.172
[5] | 0.0562

CO[C@@H]1[C@@H](OC(N)=O)[C@@H](O)[C@H](Oc2ccc3c(O)c(NC(=O)c4ccc(O)c(CC=C(C)C)c4)c(=O)oc3c2C)OC1(C)C [Novobiocin] + CN(N=O)C(=O)N[C@@H](C=O)[C@@H](O)[C@H](O)[C@H](O)CO [Streptozotocin]
fitness, [1], one replicate
Settings | first compound 0.0125 µg/mL | first compound 0.025 µg/mL | first compound 0.05 µg/mL | first compound 0.125 µg/mL | first compound 0.25 µg/mL | first compound 0.5 µg/mL
partner 0.15 µg/mL | 0.914 | ≥ 1 | 0.877 | 0.869 | 0.925 | 0.516
partner 0.3 µg/mL | 0.982 | ≥ 1 | ≥ 1 | 0.858 | 0.839 | 0.516
partner 0.6 µg/mL | 0.993 | ≥ 1 | 0.945 | ≥ 1 | 0.871 | 0.504

Settings | Bliss interaction score
[2] | 0.0669
[3] | 0.0969
[4] | 0.0508
[5] | -0.105

CC[C@H](C)[C@H](N)C1=N[C@H](C(=O)N[C@@H](CC(C)C)C(=O)N[C@H](CCC(=O)O)C(=O)N[C@H](C(=O)N[C@H]2CCCCNC(=O)[C@H](CC(N)=O)NC(=O)[C@@H](CC(=O)O)NC(=O)[C@H](Cc3cnc[nH]3)NC(=O)[C@@H](Cc3ccccc3)NC(=O)[C@H]([C@@H](C)CC)NC(=O)[C@@H](CCCN)NC2=O)[C@@H](C)CC)CS1 [Bacitracin] + C[C@H]1c2cccc(O)c2C(=O)C2=C(O)[C@]3(O)C(=O)C(C(N)=O)=C(O)[C@@H](N(C)C)[C@@H]3[C@@H](O)[C@@H]21 [Doxycycline]
fitness, [1], main component drawn
Settings | first compound 37.5 µg/mL | first compound 75 µg/mL | first compound 150 µg/mL
partner 0.02 µg/mL | 0.844 | 0.81 | –
partner 0.04 µg/mL | 0.716 | 0.664 | 0.48
partner 0.08 µg/mL | 0.476 | 0.218 | 0.0689

main component drawn
Settings | Bliss interaction score
[2] | -0.0867
[3] | 0.101
[4] | -0.0186
[5] | 0.0989

CO[C@@H]1[C@@H](OC(N)=O)[C@@H](O)[C@H](Oc2ccc3c(O)c(NC(=O)c4ccc(O)c(CC=C(C)C)c4)c(=O)oc3c2C)OC1(C)C [Novobiocin] + CC1=C\[C@@H](O)CC(=O)Cc2nc(co2)C(=O)N2CCC=C2C(=O)O[C@H](C(C)C)[C@H](C)/C=C/C(=O)NC\C=C\1 [Virginiamycin M1]
fitness, [1]
Settings | first compound 0.0125 µg/mL | first compound 0.025 µg/mL | first compound 0.05 µg/mL
partner 0.0625 µg/mL | 0.925 | 0.987 | 0.97
partner 0.125 µg/mL | 0.942 | 0.954 | 0.948
partner 0.25 µg/mL | 0.922 | 0.997 | 0.937

fitness, [1], one replicate
Settings | first compound 0.125 µg/mL | first compound 0.25 µg/mL | first compound 0.5 µg/mL
partner 0.0625 µg/mL | 0.967 | 0.867 | 0.58
partner 0.125 µg/mL | 0.973 | 0.875 | 0.571
partner 0.25 µg/mL | 0.927 | 0.884 | 0.561

Settings | Bliss interaction score
[2] | 0.0734
[3] | 0.0833
[4] | 0.0284
[5] | 0.108

CN[C@@H]1[C@H](O[C@H]2[C@H](O[C@H]3[C@H](O)[C@@H](O)[C@H](N=C(N)N)[C@@H](O)[C@@H]3N=C(N)N)O[C@@H](C)[C@]2(O)C=O)O[C@@H](CO)[C@H](O)[C@H]1O [Streptomycin] + COc1cc(Cc2cnc(N)nc2N)cc(OC)c1OC [Trimethoprim]
fitness, [1], one replicate
Settings | partner 0.1 µg/mL | partner 0.125 µg/mL | partner 0.2 µg/mL | partner 0.4 µg/mL
first compound 2 µg/mL | 0.713 | 0.605 | 0.493 | 0.253
first compound 4 µg/mL | 0.0534 | 0.0554 | 0.0535 | 0.0313
first compound 8 µg/mL | 0.0279 | 0.0253 | 0.0392 | 0.025

fitness, [1]
Settings | partner 0.25 µg/mL | partner 0.5 µg/mL | partner 1 µg/mL | partner 2 µg/mL
first compound 2 µg/mL | 0.416 | 0.103 | 0.0483 | 0.0464
first compound 4 µg/mL | 0.0303 | 0.0474 | 0.0558 | 0.0621
first compound 8 µg/mL | 0.0127 | 0.0322 | 0.0309 | 0.0326

Settings | Bliss interaction score
[2] | -0.252
[3] | -0.0639
[4] | 0.0902
[5] | -0.175

— the supplement of paper PMC10627819
